Test results as given in the NIST ThermoML archive (doi:10.1016/j.jct.2018.02.018).

Legend:
[1] = refractive index (Na D-line) (dimensionless); xn = mol fraction of the nth substance listed; conditions: 100 kPa, Liquid, Standard Abbe refractometry
[2] = xn = mol fraction of the nth substance listed; conditions: 100 kPa, Liquid; for speed of sound: Frequency=3 MHz, Single path-length method; for mass density: Vibrating tube method

NCc1ccccc1 [benzylamine] + C[S+](C)[O-]
Conditions	mass density, [2] [kg/m3]	refractive index, [1]	speed of sound, [2] [m/s]
293.15 K, x2 = 0	983	1.544	1579.7
293.15 K, x2 = 0.1031	992	1.54	1578.5
293.15 K, x2 = 0.1998	1001	1.536	1575.9
293.15 K, x2 = 0.2979	1011	1.532	1571.1
293.15 K, x2 = 0.399	1021	1.526	1565.5
293.15 K, x2 = 0.4991	1032	1.52	1558.8
293.15 K, x2 = 0.5886	1043	1.515	1551.6
293.15 K, x2 = 0.6999	1056	1.507	1540.9
293.15 K, x2 = 0.8029	1070	1.498	1530
293.15 K, x2 = 0.8991	1084	1.49	1517.7
293.15 K, x2 = 0.9493	1092	1.485	1510.6
303.15 K, x2 = 0	974	1.539	1540.2
303.15 K, x2 = 0.1031	983	1.535	1539.3
303.15 K, x2 = 0.1998	992	1.531	1536.1
303.15 K, x2 = 0.2979	1002	1.527	1533.5
303.15 K, x2 = 0.399	1012	1.522	1527.6
303.15 K, x2 = 0.4991	1023	1.516	1521.6
303.15 K, x2 = 0.5886	1033	1.51	1514.9
303.15 K, x2 = 0.6999	1047	1.502	1504.8
303.15 K, x2 = 0.8029	1061	1.494	1494.9
303.15 K, x2 = 0.8991	1075	1.485	1483.3
303.15 K, x2 = 0.9493	1082	1.48	1476.2
313.15 K, x2 = 0	965	1.534	1500
313.15 K, x2 = 0.1031	974	1.53	1500.2
313.15 K, x2 = 0.1998	983	1.527	1497.6
313.15 K, x2 = 0.2979	993	1.522	1494.6
313.15 K, x2 = 0.399	1003	1.517	1490.3
313.15 K, x2 = 0.4991	1014	1.511	1484.8
313.15 K, x2 = 0.5886	1024	1.505	1478.6
313.15 K, x2 = 0.6999	1038	1.498	1469.2
313.15 K, x2 = 0.8029	1051	1.489	1460
313.15 K, x2 = 0.8991	1065	1.481	1448.6
313.15 K, x2 = 0.9493	1072	1.476	1442.2
323.15 K, x2 = 0	957	1.529	1461.1
323.15 K, x2 = 0.1031	966	1.526	1461.4
323.15 K, x2 = 0.1998	974	1.522	1459.4
323.15 K, x2 = 0.2979	984	1.517	1457.4
323.15 K, x2 = 0.399	994	1.512	1453.3
323.15 K, x2 = 0.4991	1005	1.506	1448.4
323.15 K, x2 = 0.5886	1015	1.501	1442.7
323.15 K, x2 = 0.6999	1028	1.493	1434
323.15 K, x2 = 0.8029	1042	1.485	1425.3
323.15 K, x2 = 0.8991	1055	1.476	1414.6
323.15 K, x2 = 0.9493	1062	1.471	1408.5
